Measured values from PubChem BioAssay AID1918938 (Molecular Pharmacology Branch, DTP, NCI, 2023).

System: 556581-035-R-J1-PDC complex spheroid viability
Assay: Anticancer human tumor 556581-035-R-J1-PDC patient-derived ovarian carcinoma cell line growth inhibition
Conditions: for IC50: curve of first compound; for viability, T/C: stronger effect = lower value
How it was run: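 Complex spheroids of tumor cells with HUVEC and human MSCs, exposed to iadademstat combined with other agents. Each agent tested in half-log steps from near clinical Cmax (else 10 microM top), DMSO ≤0.25%.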

[1] = second compound 0.1 µM, first compound 0.00949 µM
[2] = second compound 0.1 µM, first compound 0.03 µM
[3] = second compound 0.1 µM, first compound 0.0949 µM
[4] = second compound 0.1 µM, first compound 0.3 µM
[5] = second compound 0.316 µM, first compound 0.00949 µM
[6] = second compound 0.316 µM, first compound 0.03 µM
[7] = second compound 0.316 µM, first compound 0.0949 µM
[8] = second compound 0.316 µM, first compound 0.3 µM
[9] = second compound 1 µM, first compound 0.00949 µM
[10] = second compound 1 µM, first compound 0.03 µM
[11] = second compound 1 µM, first compound 0.0949 µM
[12] = second compound 1 µM, first compound 0.3 µM
[13] = second compound 3.16 µM, first compound 0.00949 µM
[14] = second compound 3.16 µM, first compound 0.03 µM
[15] = second compound 3.16 µM, first compound 0.0949 µM
[16] = second compound 3.16 µM, first compound 0.3 µM
[17] = second compound 10 µM, first compound 0.00949 µM
[18] = second compound 10 µM, first compound 0.03 µM
[19] = second compound 10 µM, first compound 0.0949 µM
[20] = second compound 10 µM, first compound 0.3 µM
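Note: spheroids exposed to agents for seven days.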
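Throughout, for viability, T/C: 100% = DMSO vehicle control wells.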

CCN(c1cc(-c2ccc(CN3CCOCC3)cc2)cc(C(=O)NCc2c(C)cc(C)[nH]c2=O)c1C)C1CCOCC1 + NC1CC1c1ccc(-c2cccc(O)c2)cc1
IC50 (second compound 0.1 µM): 776 nM | IC50 (second compound 0.316 µM): 732 nM | IC50 (second compound 1 µM): 633 nM | IC50 (second compound 3.16 µM): 466 nM | IC50 (second compound 10 µM): 666 nM | viability, T/C [1]: 106% | viability, T/C [2]: 92.2% | viability, T/C [3]: 86.7% | viability, T/C [4]: 73.4% | viability, T/C (second compound 0.1 µM, first compound 0.949 µM): 42.5% | viability, T/C (second compound 0.1 µM, first compound 3 µM): 25.1% | viability, T/C [5]: 105% | viability, T/C [6]: 95.5% | viability, T/C [7]: 78.5% | viability, T/C [8]: 69.3% | viability, T/C (second compound 0.316 µM, first compound 0.949 µM): 42.7% | viability, T/C (second compound 0.316 µM, first compound 3 µM): 27.4% | viability, T/C [9]: 94.2% | viability, T/C [10]: 84.7% | viability, T/C [11]: 84.8% | viability, T/C [12]: 66.8% | viability, T/C (second compound 1 µM, first compound 0.949 µM): 40.5% | viability, T/C (second compound 1 µM, first compound 3 µM): 30.5% | viability, T/C [13]: 98.7% | viability, T/C [14]: 102% | viability, T/C [15]: 78% | viability, T/C [16]: 58.1% | viability, T/C (second compound 3.16 µM, first compound 0.949 µM): 39.4% | viability, T/C (second compound 3.16 µM, first compound 3 µM): 32.5% | viability, T/C [17]: 83.6% | viability, T/C [18]: 87.7% | viability, T/C [19]: 82.1% | viability, T/C [20]: 63.6% | viability, T/C (second compound 10 µM, first compound 0.949 µM): 44.6% | viability, T/C (second compound 10 µM, first compound 3 µM): 30.6%

Nc1ncn(C2CC(O)C(CO)S2)c(=O)n1 (stereo not given) + NC1CC1c1ccc(-c2cccc(O)c2)cc1
IC50 (second compound 0.1 µM): 37.5 nM | IC50 (second compound 0.316 µM): 33.1 nM | IC50 (second compound 1 µM): 34.7 nM | IC50 (second compound 3.16 µM): 33.7 nM | IC50 (second compound 10 µM): 28.8 nM | viability, T/C (second compound 0.1 µM, first compound 0.000949 µM): 86.7% | viability, T/C (second compound 0.1 µM, first compound 0.003 µM): 84.5% | viability, T/C [1]: 78.2% | viability, T/C [2]: 52% | viability, T/C [3]: 34.1% | viability, T/C [4]: 20.6% | viability, T/C (second compound 0.316 µM, first compound 0.000949 µM): 85.9% | viability, T/C (second compound 0.316 µM, first compound 0.003 µM): 80% | viability, T/C [5]: 88.1% | viability, T/C [6]: 52.4% | viability, T/C [7]: 27.9% | viability, T/C [8]: 22.4% | viability, T/C (second compound 1 µM, first compound 0.000949 µM): 80.5% | viability, T/C (second compound 1 µM, first compound 0.003 µM): 83.5% | viability, T/C [9]: 70% | viability, T/C [10]: 54.1% | viability, T/C [11]: 30.8% | viability, T/C [12]: 24% | viability, T/C (second compound 3.16 µM, first compound 0.000949 µM): 88.7% | viability, T/C (second compound 3.16 µM, first compound 0.003 µM): 93.6% | viability, T/C [13]: 73.7% | viability, T/C [14]: 52.6% | viability, T/C [15]: 33.1% | viability, T/C [16]: 25.4% | viability, T/C (second compound 10 µM, first compound 0.000949 µM): 82.2% | viability, T/C (second compound 10 µM, first compound 0.003 µM): 79.7% | viability, T/C [17]: 65.4% | viability, T/C [18]: 52% | viability, T/C [19]: 32.1% | viability, T/C [20]: 29.9%

O=C(C=Cn1cnc(-c2cc(C(F)(F)F)cc(C(F)(F)F)c2)n1)NNc1cnccn1 + NC1CC1c1ccc(-c2cccc(O)c2)cc1
IC50 (second compound 0.1 µM): 40.6 nM | IC50 (second compound 0.316 µM): 51.3 nM | IC50 (second compound 1 µM): 70.5 nM | IC50 (second compound 3.16 µM): 73.4 nM | IC50 (second compound 10 µM): 80.1 nM | viability, T/C (second compound 0.1 µM, first compound 0.00316 µM): 68% | viability, T/C (second compound 0.1 µM, first compound 0.01 µM): 63.7% | viability, T/C (second compound 0.1 µM, first compound 0.0316 µM): 52.4% | viability, T/C (second compound 0.1 µM, first compound 0.1 µM): 38.5% | viability, T/C (second compound 0.1 µM, first compound 0.316 µM): 16.9% | viability, T/C (second compound 0.1 µM, first compound 1 µM): 6.78% | viability, T/C (second compound 0.316 µM, first compound 0.00316 µM): 74.5% | viability, T/C (second compound 0.316 µM, first compound 0.01 µM): 73.1% | viability, T/C (second compound 0.316 µM, first compound 0.0316 µM): 61.4% | viability, T/C (second compound 0.316 µM, first compound 0.1 µM): 32.6% | viability, T/C (second compound 0.316 µM, first compound 0.316 µM): 22.7% | viability, T/C (second compound 0.316 µM, first compound 1 µM): 4.35% | viability, T/C (second compound 1 µM, first compound 0.00316 µM): 76.9% | viability, T/C (second compound 1 µM, first compound 0.01 µM): 74.2% | viability, T/C (second compound 1 µM, first compound 0.0316 µM): 72.3% | viability, T/C (second compound 1 µM, first compound 0.1 µM): 40.1% | viability, T/C (second compound 1 µM, first compound 0.316 µM): 17.2% | viability, T/C (second compound 1 µM, first compound 1 µM): 10.3% | viability, T/C (second compound 3.16 µM, first compound 0.00316 µM): 73.1% | viability, T/C (second compound 3.16 µM, first compound 0.01 µM): 74.3% | viability, T/C (second compound 3.16 µM, first compound 0.0316 µM): 61% | viability, T/C (second compound 3.16 µM, first compound 0.1 µM): 43.7% | viability, T/C (second compound 3.16 µM, first compound 0.316 µM): 28% | viability, T/C (second compound 3.16 µM, first compound 1 µM): 8% | viability, T/C (second compound 10 µM, first compound 0.00316 µM): 71.3% | viability, T/C (second compound 10 µM, first compound 0.01 µM): 77.7% | viability, T/C (second compound 10 µM, first compound 0.0316 µM): 56.5% | viability, T/C (second compound 10 µM, first compound 0.1 µM): 52.3% | viability, T/C (second compound 10 µM, first compound 0.316 µM): 20.2% | viability, T/C (second compound 10 µM, first compound 1 µM): 13.4%
